Laboratory results: patent US3981868A
In brackets after ≈: the same amount, converted by molar mass.

Legend:
diastolic blood pressure = experiment: hypotensive activity in anesthetized rats (minimal dose lowering diastolic blood pressure about 10 mm.); format: in vivo, Male Wistar strain rats; settings: Rattus norvegicus; intravenous; dose producing a decrease of about 10 mm. in diastolic blood pressure
Procedure: This procedure is a modification of the technique described by Pike et al., Prostaglandins, Nobel Symposium 2, Stockholm, June, 1966; p. 165.
Male Wistar strain rats (Royal Hart Farms) averaging approximately 250 grams in weight were fastened to rat boards in a supine position by means of canvas vests and limb ties. The femoral area was infiltrated subcutaneously with lidocaine and the iliac artery and vein were exposed and cannulated. Arterial blood pressure (systolic/diastolic) was recorded using a Statham P23 Db pressure transducer-Offner dynograph system. To obtain a stable blood pressure, the animals were anesthetized before use with pentobarbital, 30 mg./kg. of body weight intravenously, and also were given hexamethonium bitartrate, 2 mg./kg., of body weight intravenously. The test compounds were prepared by ultrasonic dispersion in a saline-Tween 80 vehicle. A constant intravenous dose volume of 0.5 ml. was administered and test doses ranged from 0.1 to 10.0 mg./kg. of body weight. Increasing or decreasing doses were selected depending on the dose response obtained. In Table I below are set forth the minimal doses required to produce a decrease of about 10 mm. in diastolic blood pressure for typical compounds of the present invention.

[1] = system: Microsporum canis ATCC 10214; experiment: agar-dilution streak-plate antifungal assay (1); format: cell-based; settings: ATCC10214, read-out: Minimal inhibitory conc.
Procedure: (§1) The novel compounds of the present invention are also useful as antimicrobial agents. […] In this assay, the compounds to be tested are made up to contain 2.5 mg. of test compound per milliliter of solution. Observing sterile techniques, two-fold serial dilutions are made of each test solution. One milliliter of each of the original solutions and of each of the serial dilutions is then added to 9 ml. of warm sterile nutrient agar capable of supporting growth of the bacterial test cultures. A second set of agar dilutions is prepared identical to the first except that the nutrient agar is designed to support the growth of the fungal test cultures. […] The test bacteria and yeast-like fungi are prepared for use by growing in broth overnight. The spores of the filamentous fungi are harvested from mature agar slant cultures and are suspended in sterile physiological saline solution. A loopful of each of the resulting live suspensions is then, still employing sterile techniques, streaked upon the surfaces of each of the agar plates and the resulting streaked plates are then incubated. After an appropriate period of time, each of the streaks on each of the plates is inspected visually and the extent, if any, of bacterial or fungal growth is noted. The minimal inhibitory concentration (expressed in micrograms per milliliter) is defined as the concentration of test compound causing complete inhibition of growth of any particular organism. In a representative operation, and merely by way of illustration, the minimal inhibitory concentration of typical compounds of the present invention against a variety of test organisms as determined in the above-described assay are set forth in Tables II and III below: […]

[2] = system: Microsporum gypseum ATCC 14683; experiment: agar-dilution streak-plate antifungal assay (2); format: cell-based; settings: Nannizzia gypsea, ATCC14683, read-out: Minimal inhibitory conc.
Procedure: as §1

[3] = system: Trichophyton tonsurans NIH 662; experiment: agar-dilution streak-plate antifungal assay (3); format: cell-based; settings: NIH662, read-out: Minimal inhibitory conc.
Procedure: as §1

[4] = system: Trichophyton mentagrophytes E 11?; experiment: agar-dilution streak-plate antifungal assay (4); format: cell-based; settings: read-out: Minimal inhibitory conc.
Procedure: as §1

Trichophyton rubrum E 97 = experiment: agar-dilution streak-plate antifungal assay (5); format: cell-based; settings: E97, read-out: Minimal inhibitory conc.
Procedure: as §1

[5] = system: Mycobacterium smegmatis ATCC 606; experiment: agar-dilution streak-plate antibacterial assay (6); format: cell-based; settings: Mycolicibacterium smegmatis, ATCC606, read-out: Minimal inhibitory conc.
Procedure: as §1

[6] = system: Staphylococcus aureus Rose ATCC 14154; experiment: agar-dilution streak-plate antibacterial assay (7); format: cell-based; settings: ATCC14154, read-out: Minimal inhibitory conc.
Procedure: as §1

[7] = system: Streptococcus pyogenes C 203; experiment: agar-dilution streak-plate antibacterial assay (8); format: cell-based; settings: C203, read-out: Minimal inhibitory conc.
Procedure: as §1

gastric acid secretion = experiment: inhibition of gastric acid secretion (pylorus-ligated rat, Shay rat); format: in vivo, rats (male, CFE strain); settings: intraduodenal dose 100 mg./kg. body weight, 3 hours, 20% or more considered active
Procedure: The novel compounds of the present invention are also effective inhibitors of gastric acid secretion and of ulcer development in experimental animals, and thus are potentially valuable as agents for the control of gastric acid secretion and of gastric erosion and as anti-ulcer agents. Gastric acid secretion inhibitory action is usually measured by the "Shay rat" procedure ^(1,2) with some modifications as follows.
The rats (male, CFE strain) were starved for 48 hours (water was given ad libitum) to permit evacuation of stomach contents. On the morning of the experiment, under ether anesthesia, the abdominal region was shaved and a midline incision (1-11/2 inches) was made with a scalpel. With the help of a closed curved hemostat the duodenum was picked up. Upon getting the duodenum into view fingers were used to pull the stomach through the opening, the stomach was then gently manipulated with fingers to rid the stomach of air and residual matter which were pushed through the pylorus. Two 5-inch sutures were drawn under the pyloric-duodenal juncture. A ligature, at the juncture, was formed with one of the threads. The second ligature was also formed by not tightened.
The test compound or the vehicle, usually 1 ml./100 g. body weight, were injected into the duodenum as close as possible to the first ligature. After injection the second ligature was tightened below the injection site to minimize leakage. The stomach was placed back through the opening into the abdominal cavity, the area of incision was washed with saline and the incision was closed with autoclips. (Ocasionally, instead of an intraduodenal injection, animals were dosed by the oral or subcutaneous route. In the latter case, dosing was done thirty to sixty minutes before the operation).
The abdominal cavity was exposed by cutting with scissors and the esophagus close to the stomach was clamped off with a hemostat, the stomach was removed by cutting above the hemostat (the espohagus was cut) and between the two sutures. Extraneous tissue was removed, the stomach washed with saline and blotted on gauze. A slit was carefully made in the stomach which was held over a funnel and the contents were collected in a centrifuge tube. The stomach was further cut along the outside edge and turned inside out. Two ml. of water were used to wash the stomach contents into the respective centrifuge tube. The combined stomach contents and wash were then centrifuged out for 10 minutes in the International Size 2 Centrifuge (setting at 30). The supernatant was collected, volume measured and recorded, 2 drops of phenolphthalein indicator (1% in 95% ethanol) were added and the solution was titrated with 0.02N NaOH (or with 0.04N NaOH when large volumes of stomach contents were encountered) to pH 8.4 (because of usual coloring of the stomach contents, phenolphthalein was only used to permit visual indication that the end point was near) and the amount of acid present was calculated.
Compounds inducing inhibition of gastric acid secretion of 20% or more were considered active. In a representative operation, and merely by way of illustration, the results obtained with this assay with typical compounds of the present invention are given in Table IIIA.

[8] = system: dl-PGE1-induced contraction of gerbil colon; experiment: inhibition of dl-PGE1-induced contraction of gerbil colon; settings: approximate; for ID50 vs. 20 ng. of PGE1 /ml.: sub-maximal challenge, 20 ng./ml. dl-PGE1, 50% inhibition of maximum response; for ID50 vs. 200 ng. of PGE1 ml.: maximal challenge, 200 ng./ml. dl-PGE1

Row | Structure (SMILES) | MIC [1] [µg/mL] | MIC [2] [µg/mL] | MIC [3] [µg/mL] | MIC [4] [µg/mL] | MIC (Trichophyton rubrum E 97) [µg/mL] | MIC [5] [µg/mL] | MIC [6] [µg/mL] | MIC [7] [µg/mL] | minimal effective dose (diastolic blood pressure) [mg/kg] | Percent Inhibition of gastric acid secretion (gastric acid secretion) [%] | ID50 vs. 20 ng. of PGE1 /ml. [8] [µg/mL] | ID50 vs. 200 ng. of PGE1 ml. [8] [µg/mL]
1 | CCCCCC/C=C/[C@H]1CCC(=O)[C@@H]1CCCCCCC(=O)NCCCN(C)C (relative stereo) | 100 (≈ 246 µM) | 100 (≈ 246 µM) | 100 (≈ 246 µM) | 25 (≈ 61.5 µM) | 100 (≈ 246 µM) | 10 (≈ 24.6 µM) | 50 (≈ 123 µM) | 10 (≈ 24.6 µM) | 0.4 | 76 | 0.5 | –
2 | CCCCCC/C=C/[C@H]1CCC(=O)[C@@H]1CCCCCCC(=O)N1CCN(C)CC1 (relative stereo) [listing 1 of 2 here] | 25 (≈ 61.8 µM) | 25 (≈ 61.8 µM) | 25 (≈ 61.8 µM) | 10 (≈ 24.7 µM) | 25 (≈ 61.8 µM) | 10 (≈ 24.7 µM) | 25 (≈ 61.8 µM) | 10 (≈ 24.7 µM) | 4 | 36 | – | –
3 | CCCCCC/C=C/[C@H]1CCC(=O)[C@@H]1CCCCCCC(N)=O (relative stereo) [9-oxo-13-trans-prostenamide] | 50 (≈ 156 µM) | 50 (≈ 156 µM) | 50 (≈ 156 µM) | 25 (≈ 77.8 µM) | 50 (≈ 156 µM) | 25 (≈ 77.8 µM) | 50 (≈ 156 µM) | 10 (≈ 31.1 µM) | 2 | – | 5 | –
4 | CCCCCC/C=C/[C@H]1CCC(=O)[C@@H]1CCCCCCC(=O)NO (relative stereo) | 250 (≈ 741 µM) | 250 (≈ 741 µM) | 250 (≈ 741 µM) | 250 (≈ 741 µM) | 250 (≈ 741 µM) | 250 (≈ 741 µM) | 250 (≈ 741 µM) | 250 (≈ 741 µM) | 2 | 38 | – | 12
5 | CCC/C=C/[C@H]1CCC(=O)[C@@H]1CCCCCCC(=O)NCCCN(C)C (relative stereo) [N-(3-dimethylaminopropyl) 9-oxo-18,19,20-trinor-13-trans-prostenamide] | – | – | – | – | – | – | – | – | – | 87 | – | –
6 | CCCCCC/C=C/[C@H]1CCC(=O)[C@@H]1CCCCCCC(=O)N1CCOCC1 (relative stereo) | 250 (≈ 638 µM) | – | 250 (≈ 638 µM) | 250 (≈ 638 µM) | – | 25 (≈ 63.8 µM) | – | 25 (≈ 63.8 µM) | 1 | – | – | –
7 | CCCCCC/C=C/[C@H]1CCC(=O)[C@@H]1CCCCCCC(=O)N(C)C (relative stereo) [N,N-dimethyl-9-oxo-13-trans-prostenamide] | 25 (≈ 71.5 µM) | 25 (≈ 71.5 µM) | 25 (≈ 71.5 µM) | 25 (≈ 71.5 µM) | 25 (≈ 71.5 µM) | 10 (≈ 28.6 µM) | 25 (≈ 71.5 µM) | 10 (≈ 28.6 µM) | 2 | – | 2 | –
8 | CCCCCC/C=C/[C@H]1CCC(=O)[C@@H]1CCCCCCC(=O)N1CC2CCC(CC2)C1 (relative stereo) | – | – | – | – | – | – | – | – | – | – | 4 | –
9 | CCCCCC/C=C/[C@H]1CCC(=O)[C@@H]1CCCCCCC(=O)N1CCN(C)CC1 (relative stereo) [listing 2 of 2 here] | – | – | – | – | – | – | – | – | – | – | 0.5 | 3
10 | CCCCCC/C=C/[C@H]1CCC(=O)[C@@H]1CCCCCCC(=O)N1CCN(c2ccccc2)CC1 (relative stereo) | – | – | – | – | – | – | – | – | 8 | – | – | –

Further molecules by falling MIC [1], results first:

Row | MIC [1] [µg/mL] | MIC [2] [µg/mL] | MIC [3] [µg/mL] | MIC [4] [µg/mL] | MIC (Trichophyton rubrum E 97) [µg/mL] | MIC [5] [µg/mL] | MIC [6] [µg/mL] | MIC [7] [µg/mL] | Structure (SMILES) | minimal effective dose (diastolic blood pressure) [mg/kg] | Percent Inhibition of gastric acid secretion (gastric acid secretion) [%] | ID50 vs. 20 ng. of PGE1 /ml. [8] [µg/mL] | ID50 vs. 200 ng. of PGE1 ml. [8] [µg/mL]
11 | 250 (≈ 612 µM) | 125 (≈ 306 µM) | 125 (≈ 306 µM) | 125 (≈ 306 µM) | 250 (≈ 612 µM) | 6 (≈ 14.7 µM) | 62 (≈ 152 µM) | 6 (≈ 14.7 µM) | CCCCCC/C=C/[C@H]1CCC(O)[C@@H]1CCCCCCC(=O)NCCCN(C)C (stereo partly drawn) [N-(3-dimethylaminopropyl)-9-(α- and β-)-hydroxy-13-trans-prostenamide] | 0.2 | 85 | – | –
12 | 100 (≈ 298 µM) | 50 (≈ 149 µM) | 25 (≈ 74.5 µM) | 25 (≈ 74.5 µM) | 100 (≈ 298 µM) | – | 5 (≈ 14.9 µM) | – | CCCCCC/C=C/[C@H]1CCC(=O)[C@@H]1CCCCCCC(=O)NC (relative stereo) [N-methyl-9-oxo-13-trans-prostenamide] | 4 to 8 | – | – | –
13 | 100 (≈ 266 µM) | 10 (≈ 26.6 µM) | 50 (≈ 133 µM) | 50 (≈ 133 µM) | 25 (≈ 66.6 µM) | 5 (≈ 13.3 µM) | 50 (≈ 133 µM) | 5 (≈ 13.3 µM) | CCCCCC/C=C/[C@H]1CCC(=O)[C@@H]1CCCCCCC(=O)N1CCCC1 (relative stereo) | 8 | – | 1 | –
14 | 25 (≈ 68.4 µM) | 25 (≈ 68.4 µM) | 25 (≈ 68.4 µM) | 10 (≈ 27.4 µM) | 25 (≈ 68.4 µM) | 25 (≈ 68.4 µM) | 25 (≈ 68.4 µM) | 10 (≈ 27.4 µM) | CCCCCC/C=C/[C@H]1CCC(=O)[C@@H]1CCCCCCC(=O)NCCO (relative stereo) [N-(2-hydroxyethyl)-9-oxo-13-trans-prostenamide] | 0.4 | – | 1 | –
15 | 25 (≈ 68.6 µM) | 25 (≈ 68.6 µM) | 25 (≈ 68.6 µM) | 25 (≈ 68.6 µM) | 25 (≈ 68.6 µM) | 10 (≈ 27.4 µM) | 25 (≈ 68.6 µM) | 10 (≈ 27.4 µM) | CCCCCC/C=C/[C@H]1CCC(=O)[C@@H]1CCCCCCC(=O)NN(C)C (relative stereo) [N-(dimethylamino)-9-oxo-13-trans-prostenamide] | 2 | 58 | 0.5 | –
